# Where two headings read alike, the source gives them in different places.
# How the values were obtained:
# [1] = Sweetness enhancement of artificial sweetener acesulfame potassium by naringenin; assay type: in vivo, human; details: acesulfame potassium (120 ppm), naringenin 100 ppm
# Experimental: (§1) Sucrose solutions of different concentrations were prepared in water. A naringenin (AuNutra Industries Inc) solution was also prepared in water (100 ppm) and used in all of the following examples. In addition, the sweetness enhancement of (i) sucralose (40 ppm), (ii) aspartame (120 ppm) and (iii) acesulfame potassium (120 ppm) by naringenin was also evaluated, respectively.
# [2] = Flavor profile of Reb A water solution (10 ppm) plus naringenin of different concentrations; assay type: in vivo, human
# Experimental: A Reb A water solution (10 ppm) was prepared and used as the base. Different amount of naringenin was added to the base to obtain naringenin samples of a series of concentrations ranging from 10 to 1000 ppm.
# [3] = Sweetness enhancement of artificial sweetener sucralose by naringenin; assay type: in vivo, human; details: sucralose (40 ppm), naringenin 100 ppm
# Experimental: as §1
# [4] = cited from earlier work
# [5] = Paired comparison of sweetness, sucrose solutions in water with or without naringenin; assay type: in vivo, human; details: for Number of Samples Rated Sweeter: 26 paired samples
# Text: The term “sweetness” or “sweetness intensity” is understood to mean the relative strength of sweet sensation as observed or experienced by an individual, e.g., a human, or a degree or amount of sweetness detected by a taster, for example on the scale from 0 (none) to 8 (very strong) used in sensory evaluations according to the procedure described in American Society for Testing Materials, Special Technical Publication-434: “Manual on Sensory Testing Methods,” ASTM International, West Conshohocken, Pa. (1996). Sucrose solutions of different concentrations were prepared in water. A naringenin (AuNutra Industries Inc) solution was also prepared in water (100 ppm) and used in all of the following examples. Each test group contained 26 paired samples. In each paired samples, a sucrose solution of a higher concentration was compared for sweetness against that of a lower concentration but in combination with naringenin. The results were represented by the numbers of samples rated as sweeter in paired comparisons, which were then statistically analyzed using binomial distribution for two-sided comparisons at 95% confidence level.
# [6] = cited from earlier work; remark: listed apart in the source
# [7] = Paired comparison of sweetness, Reb A solutions in water with or without naringenin; assay type: in vivo, human
# Text: The term “sweetness” or “sweetness intensity” is understood to mean the relative strength of sweet sensation as observed or experienced by an individual, e.g., a human, or a degree or amount of sweetness detected by a taster, for example on the scale from 0 (none) to 8 (very strong) used in sensory evaluations according to the procedure described in American Society for Testing Materials, Special Technical Publication-434: “Manual on Sensory Testing Methods,” ASTM International, West Conshohocken, Pa. (1996). Sucrose solutions of different concentrations were prepared in water. A naringenin (AuNutra Industries Inc) solution was also prepared in water (100 ppm) and used in all of the following examples. Each test group contained 26 paired samples. In each paired samples, a sucrose solution of a higher concentration was compared for sweetness against that of a lower concentration but in combination with naringenin. The results were represented by the numbers of samples rated as sweeter in paired comparisons, which were then statistically analyzed using binomial distribution for two-sided comparisons at 95% confidence level. The evaluation is reported in the following: Reb A solutions of different concentrations were prepared in water and the sweetness enhancement by naringenin was similarly evaluated.
# [8] = Sweetness enhancement of artificial sweetener aspartame by naringenin; assay type: in vivo, human; details: aspartame (120 ppm), naringenin 100 ppm
# Experimental: as §1
# [9] = Paired comparison of sweetness, sucrose & Reb A combination with or without naringenin; assay type: in vivo, human
# Text: The term “sweetness” or “sweetness intensity” is understood to mean the relative strength of sweet sensation as observed or experienced by an individual, e.g., a human, or a degree or amount of sweetness detected by a taster, for example on the scale from 0 (none) to 8 (very strong) used in sensory evaluations according to the procedure described in American Society for Testing Materials, Special Technical Publication-434: “Manual on Sensory Testing Methods,” ASTM International, West Conshohocken, Pa. (1996). Sucrose solutions of different concentrations were prepared in water. A naringenin (AuNutra Industries Inc) solution was also prepared in water (100 ppm) and used in all of the following examples. Each test group contained 26 paired samples. In each paired samples, a sucrose solution of a higher concentration was compared for sweetness against that of a lower concentration but in combination with naringenin. The results were represented by the numbers of samples rated as sweeter in paired comparisons, which were then statistically analyzed using binomial distribution for two-sided comparisons at 95% confidence level. The evaluation is reported in the following: The sweetness enhancement of sucrose & Reb A combination by naringenin was also evaluated.
# [10] = Flavor profile of non-fat plain yogurt with 5% sucrose plus naringenin of different concentrations; assay type: in vivo, human
# Experimental: A Danone Non-Fat Plain Yogurt with 5% sucrose was prepared and used as the base. Different amount of naringenin was added to the base to obtain naringenin samples of a series of concentrations ranging from 10 to 1000 ppm.
# [11] = pair Sucrose (0.5%) vs Naringenin (100 ppm in water), p 0.40
smiles,measurement,setting,value
"O=C1CC(c2ccc(O)cc2)Oc2cc(O)cc(O)c21 (centres unmarked) [Naringenin, 2,3-dihydro-5,7-dihydroxy-2-(4-hydroxyphenyl)-4H-1-benzopyran-4-one]",sweetness enhancement,[1],enhanced sweetness with an impact up front
same,concentration at which naringenin exhibited sweetness enhancement,[2]; Reb A water solution (10 ppm),≥ 50 ppm
same,concentration at which undesirable off-notes developed,[2]; Reb A water solution (10 ppm),750 ppm
same,Flavor Profile,"[2]; Sample 2, naringenin 10 ppm in Reb A water solution (10 ppm)",Same as that of the base
same,Flavor Profile,"[2]; Sample 3, naringenin 50 ppm in Reb A water solution (10 ppm)",Very minor increase in sweetness
same,Flavor Profile,"[2]; Sample 4, naringenin 75 ppm in Reb A water solution (10 ppm)",Slightly more increase in sweetness
same,Flavor Profile,"[2]; Sample 5, naringenin 100 ppm in Reb A water solution (10 ppm)",Clear increase in sweetness with an impact up
same,Flavor Profile,"[2]; Sample 6, naringenin 250 ppm in Reb A water solution (10 ppm)",Intense sweetness with a stronger impact up
same,Flavor Profile,"[2]; Sample 7, naringenin 500 ppm in Reb A water solution (10 ppm)",Intense sweetness with a strong impact up front
same,Flavor Profile,"[2]; Sample 8, naringenin 750 ppm in Reb A water solution (10 ppm)",More intense sweetness with increased waxy
same,sweetness enhancement,[3],enhanced sweetness with an impact up front
same,aftertaste modifier effect,[4]; U.S. Publication No. 2009/0004360,decreases the perception of bitterness or undesirable flavor
same,taste of naringenin itself,[4]; in vivo,weak to no sweet taste
same,taste and flavor performance,"[4]; tested up to a concentration of 10 ppm, U.S. Publication No. 2014/0170082","exhibits bitterness and unpleasant aftertaste, and performs poorly on flavor"
same,sweetness enhanced to a level of a sucrose solution,[5]; naringenin 100 ppm in combination with a 4% sucrose solution,4.8%
same,"intrinsic sweetness, approximate level of a sucrose solution",[5]; naringenin 100 ppm in water alone,~0.5%
same,enhancement of sucrose sweetness,[5]; naringenin 100 ppm with 4% sucrose solution,more than an additive effect
same,Number of Samples Rated Sweeter,[5]; [11],16
same,solubility,[6]; in aqueous solutions,sparingly soluble
same,solubility,"[6]; in ethanol, ether, oils (e.g., olive oil or citrus oil) and supercritical carbon dioxide",soluble
same,enhancement of Reb A sweetness,[7]; naringenin 100 ppm,significantly enhanced
same,enhancement compared with that provided by additional Reb A,"[7]; naringenin 100 ppm with 100 ppm Reb A, ppm of Reb A",< 40 ppm
same,sweetness enhancement,[8],enhanced sweetness with an impact up front
same,enhancement of the sweetness of sucrose & Reb A combination,[9]; naringenin 100 ppm,significantly enhanced
same,enhancement compared with that achieved by Reb A,"[9]; naringenin 100 ppm with Reb A (10 ppm) + Sucrose (4%), ppm of Reb A",> 20 ppm
same,Flavor Profile,"[10]; Sample 2, naringenin 10 ppm in yogurt with 5% sucrose",Same as the base
same,Flavor Profile,"[10]; Sample 3, naringenin 50 ppm in yogurt with 5% sucrose",Minor increase in sweetness
same,Flavor Profile,"[10]; Sample 4, naringenin 75 ppm in yogurt with 5% sucrose",Slightly more increase in sweetness
same,Flavor Profile,"[10]; Sample 5, naringenin 100 ppm in yogurt with 5% sucrose",Clear increase in sweetness
same,Flavor Profile,"[10]; Sample 6, naringenin 250 ppm in yogurt with 5% sucrose",More intense and full-body sweetness
same,Flavor Profile,"[10]; Sample 7, naringenin 500 ppm in yogurt with 5% sucrose",Full-body sweetness with good impact
same,concentration at which naringenin exhibited sweetness enhancement,[10]; yogurt with 5% sucrose,≥ 50 ppm
same,concentration at which undesirable off-notes developed,[10]; yogurt with 5% sucrose,1000 ppm
"C=C1C[C@@]23CC[C@H]4[C@@](C)(CCC[C@@]4(C)C(=O)O[C@@H]4O[C@H](CO)[C@@H](O)[C@H](O)[C@H]4O)[C@@H]2CC[C@]1(O[C@@H]1O[C@H](CO)[C@@H](O)[C@H](O[C@@H]2O[C@H](CO)[C@@H](O)[C@H](O)[C@H]2O)[C@H]1O[C@@H]1O[C@H](CO)[C@@H](O)[C@H](O)[C@H]1O)C3 [Reb A, rebaudioside A, reference compound]",Number of Samples Rated Sweeter,"[7]; pair 140 ppm Reb A vs 100 ppm Reb A + Naringenin (100 ppm), p 0.05, significant",19
same,Number of Samples Rated Sweeter,"[7]; pair Reb A (120 ppm) vs Reb A (120 ppm) + Naringenin (100 ppm), p 0.01, significant",5
"OC[C@H]1O[C@@](CO)(O[C@H]2O[C@H](CO)[C@@H](O)[C@H](O)[C@H]2O)[C@@H](O)[C@@H]1O [Sucrose, sucrose, reference compound]",Number of Samples Rated Sweeter,[5]; [11],10
same,Number of Samples Rated Sweeter,"[5]; pair Sucrose (4.4%) vs Sucrose (4%) + Naringenin (100 ppm), p 0.01, significant",6
same,Number of Samples Rated Sweeter,"[5]; pair Sucrose (4.8%) vs Sucrose (4%) + Naringenin (100 ppm), p >0.40",14
